These are literature values, as cited in patent EP1382610A2, “Conductive metal-containing nucleic acids” (The University of Saskatchewan, priority 1997, dated 1999).

The term pKa denotes the pH at which an ionisable group is half protonated.

The conditions of the series: imino protons.

On to `Cc1c[nH]c(=O)[nH]c1=O` [T, thymine], for which the pKa is reported as 9.9.

In the case of `Nc1nc2nc[nH]c2c(=O)[nH]1` [G, guanine], the pKa is 9.4.
